The record followed here is ChEMBL document CHEMBL1201862, “PubChem BioAssay data set” (2004).

SMILES strings stand for the structures.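 48-hour exposure; five concentrations; linearly interpolated endpoints. At the GI50, growth is halved.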 Calls of active or inactive are those of the source. No stated cut-off is given here; in the data, active = GI50 up to about 1.1 µM and inactive = higher.

Some test systems named below: EKVX; MOLT-4; SNB-19; K562; M14; A549; HOP-92; NCI-H226; SN12C; DU-145; HCC 2998; U-251; COLO 205; OVCAR-3; SF-268; RXF 393; SK-MEL-28; HOP-62; NCI-H522; SW-620.
Experiment in all cases: NCI anticancer screen, dose series, 48 h

Regarding `c1ccc2nc3c(nc2c1)sc1nc2ccccc2n13`, the GI50 was > 100 µM (inactive) with EKVX; > 100 µM (inactive) in the experiment on MOLT-4; 93.8 µM (inactive) in the experiment with SNB-19; > 100 µM (inactive) in the experiment on K562; > 100 µM (inactive) in the experiment with M14; > 100 µM (inactive) in the experiment with A549. Further, the GI50 with HOP-92 is 57 µM (inactive); in the experiment on NCI-H226 it was > 100 µM (inactive); in the experiment with SN12C, > 100 µM (inactive); with DU-145, > 100 µM (inactive); in the experiment with HCC 2998 it was > 100 µM (inactive); in the experiment on U-251, > 100 µM (inactive). The GI50 in the experiment with COLO 205 was > 100 µM (inactive); in the experiment with OVCAR-3, > 100 µM (inactive); in the experiment with SF-268, 56.1 µM (inactive); in the experiment on RXF 393, 28.4 µM (inactive).

For `CN(CCN1C(=O)c2cccc3cccc(c23)C1=O)CCN1C(=O)c2cccc3cccc(c23)C1=O`, the GI50 with EKVX is > 100 µM (inactive); in the experiment on MOLT-4, 7.73 µM (inactive); in the experiment with SK-MEL-28 it was > 100 µM (inactive); in the experiment with SNB-19, 3.17 µM (inactive); with K562 it was 73.1 µM (inactive); in the experiment on M14 it was > 100 µM (inactive). The GI50 in the experiment on A549 was 27.6 µM (inactive); in the experiment on NCI-H226, 17.5 µM (inactive); in the experiment with SN12C, 76 µM (inactive); in the experiment with DU-145, > 100 µM (inactive); in the experiment on HOP-62, 12.5 µM (inactive); in the experiment on U-251 it was 12.2 µM (inactive). Besides, the GI50 in the experiment on COLO 205 was 2.55 µM (inactive); in the experiment with OVCAR-3, 21.2 µM (inactive); in the experiment with SF-268, 27.7 µM (inactive); with NCI-H522 it was 13.2 µM (inactive); with RXF 393, 23.3 µM (inactive).

Take `O=c1c2sc3ccccc3sc=2c(=O)c2c(Cl)c(Cl)c(Cl)c(Cl)c12`: the GI50 in the experiment with EKVX was > 100 µM (inactive); in the experiment on MOLT-4, > 100 µM (inactive); in the experiment with SK-MEL-28 it was > 100 µM (inactive); with SNB-19, > 100 µM (inactive); with K562 it was 34.8 µM (inactive); with M14, > 100 µM (inactive). Further, the GI50 was > 100 µM (inactive) in the experiment on A549; > 100 µM (inactive) in the experiment on NCI-H226; > 100 µM (inactive) with SN12C; > 100 µM (inactive) with DU-145; 96.2 µM (inactive) in the experiment on HCC 2998; > 100 µM (inactive) in the experiment with HOP-62. In addition, the GI50 in the experiment with SW-620, in the experiment with U-251, in the experiment on COLO 205, in the experiment on OVCAR-3, with SF-268 and with NCI-H522 was > 100 µM (inactive) each time. For the same compound, the GI50 in the experiment on RXF 393 is > 100 µM (inactive).

On to `COc1ccc(/N=[N+](\[O-])c2ccc(OC)cc2)cc1`, for which the GI50 with EKVX, in the experiment with MOLT-4, in the experiment on SK-MEL-28, in the experiment on SNB-19, in the experiment on K562 and in the experiment with M14 was > 100 µM (inactive) throughout. The GI50 in the experiment with A549, in the experiment with HOP-92, in the experiment with DU-145, in the experiment on HCC 2998, in the experiment with HOP-62 and in the experiment on U-251 was > 100 µM (inactive) in each case. Besides, the GI50 in the experiment on COLO 205 was > 100 µM (inactive); in the experiment with OVCAR-3, > 100 µM (inactive); in the experiment with SF-268 it was > 100 µM (inactive); with NCI-H522, 79.8 µM (inactive); with RXF 393 it was > 100 µM (inactive).

With `CCOC(=O)C1(C/C=C/CBr)Cc2ccccc2C1=O` (configuration not stated), the GI50 with EKVX was 14.6 µM (inactive); in the experiment with MOLT-4, 2.49 µM (inactive); with SK-MEL-28 it was 6.93 µM (inactive); with SNB-19 it was 5.45 µM (inactive); with K562 it was 1.87 µM (inactive); in the experiment on M14, 2.83 µM (inactive). For the same compound, the GI50 in the experiment with A549 was 10.5 µM (inactive); with SN12C, 1.99 µM (inactive); with DU-145, 3.38 µM (inactive); in the experiment on HCC 2998 it was 9.02 µM (inactive); in the experiment with HOP-62 it was 4.03 µM (inactive); in the experiment on SW-620, 2.58 µM (inactive). Moreover, the GI50 with U-251 was 3.58 µM (inactive); in the experiment on COLO 205, 3.21 µM (inactive); in the experiment on OVCAR-3, 2.17 µM (inactive); in the experiment with SF-268, 2.91 µM (inactive); in the experiment on NCI-H522 it was 1.63 µM (inactive); in the experiment with RXF 393, 1.55 µM (inactive).

Regarding `CC1=C2CC(C)(C)CC(=O)C2(C)CCC1=O` (configuration not stated), the GI50 in the experiment on EKVX, with MOLT-4, in the experiment on SK-MEL-28, in the experiment with SNB-19, in the experiment on K562 and with M14 was > 100 µM (inactive) each time. The GI50 with A549, with NCI-H226, in the experiment with SN12C, in the experiment with DU-145, in the experiment on HCC 2998 and in the experiment with HOP-62 was > 100 µM (inactive) throughout. Also, the GI50 in the experiment on SW-620, in the experiment with U-251, in the experiment with COLO 205, with SF-268 and in the experiment with NCI-H522 was > 100 µM (inactive) each time.

Regarding `COc1ccc2nc3cc(Cl)ccc3c(NCCCNCc3cc(OC)c(OC)c(OC)c3)c2c1`, the GI50 with EKVX is 1.47 µM (inactive); in the experiment with MOLT-4, 0.515 µM (active); in the experiment with SK-MEL-28, 1.67 µM (inactive); in the experiment with SNB-19 it was 1.83 µM (inactive); in the experiment with K562, 0.465 µM (active); in the experiment on M14, 1.65 µM (inactive). Further, the GI50 in the experiment with A549 is 1.83 µM (inactive); in the experiment with NCI-H226, 1.67 µM (inactive); with SN12C it was 1.53 µM (inactive); in the experiment on DU-145, 1.7 µM (inactive); with HCC 2998, 1.75 µM (inactive); in the experiment with HOP-62, 1.32 µM (inactive). The GI50 in the experiment with SW-620 is 0.733 µM (active); in the experiment with U-251, 1.76 µM (inactive); in the experiment on COLO 205, 1.31 µM (inactive); in the experiment on OVCAR-3, 1.83 µM (inactive); in the experiment on SF-268, 1.67 µM (inactive); in the experiment on NCI-H522 it was 1.5 µM (inactive). Also, the GI50 with RXF 393 was 1.46 µM (inactive).

`CCOC(=O)C1(Cc2ccccc2)Cc2cc3c(cc2C1=O)CCC3` (configuration not stated): the GI50 in the experiment with EKVX is > 100 µM (inactive); in the experiment with MOLT-4, > 100 µM (inactive); in the experiment on SK-MEL-28, > 100 µM (inactive); in the experiment on SNB-19 it was > 100 µM (inactive); with K562, > 100 µM (inactive); in the experiment on M14, 92 µM (inactive). In addition, the GI50 in the experiment on A549, with HOP-92, with NCI-H226, with SN12C, in the experiment with DU-145 and in the experiment with HCC 2998 was > 100 µM (inactive) each time. Moreover, the GI50 in the experiment with HOP-62, in the experiment on SW-620, in the experiment on U-251, in the experiment on COLO 205, in the experiment on OVCAR-3 and in the experiment on SF-268 was > 100 µM (inactive) in each case. Further, the GI50 with RXF 393 was > 100 µM (inactive).

As to `Cc1ccccc1N(C)S(=O)(=O)c1ccccc1[N+](=O)[O-]`, the GI50 in the experiment with EKVX is 32.2 µM (inactive); in the experiment with MOLT-4, 27.9 µM (inactive); in the experiment on SK-MEL-28, 54.1 µM (inactive); in the experiment with SNB-19, 67.8 µM (inactive); in the experiment with K562 it was 28.7 µM (inactive); with M14 it was 20.8 µM (inactive). The GI50 in the experiment with A549 was 45.9 µM (inactive); with NCI-H226, 33.1 µM (inactive); with SN12C it was > 100 µM (inactive); in the experiment on DU-145, > 100 µM (inactive); in the experiment on HCC 2998, 51.3 µM (inactive); in the experiment with HOP-62 it was 48.2 µM (inactive). Also, the GI50 is 84.1 µM (inactive) in the experiment on SW-620; 36.3 µM (inactive) in the experiment on U-251; 13.1 µM (inactive) in the experiment with COLO 205; 46.3 µM (inactive) with OVCAR-3; 40.7 µM (inactive) with SF-268; 36.1 µM (inactive) in the experiment on NCI-H522. Further, in the experiment with RXF 393, the GI50 was 21.3 µM (inactive).

With `O=C(N/N=C\c1cccc2ccccc12)Nc1cccc2ccccc12`, the GI50 with EKVX is 84.7 µM (inactive); in the experiment on MOLT-4, 4.49 µM (inactive); with SK-MEL-28, 32.9 µM (inactive); with SNB-19 it was 16.4 µM (inactive); in the experiment with K562, 3.17 µM (inactive); in the experiment on M14 it was 28.8 µM (inactive). Besides, the GI50 in the experiment on A549 was 44.1 µM (inactive); with NCI-H226, 49.4 µM (inactive); in the experiment with SN12C, 41.9 µM (inactive); in the experiment on DU-145 it was > 100 µM (inactive); with HCC 2998, 33.7 µM (inactive); with HOP-62 it was 7.11 µM (inactive). Moreover, the GI50 with SW-620 is 10.6 µM (inactive); in the experiment on U-251, 11.4 µM (inactive); with COLO 205 it was 16.9 µM (inactive); in the experiment on SF-268, 63.4 µM (inactive); with NCI-H522, 18.6 µM (inactive); in the experiment on RXF 393, 14.1 µM (inactive).

For `O=C(O)Cc1ccc2nc(COC(=O)c3ccccc3)sc2c1`, the GI50 in the experiment on EKVX, with SK-MEL-28, with SNB-19, with K562, with M14 and in the experiment with A549 was > 100 µM (inactive) in each case. In addition, the GI50 in the experiment on HOP-92, in the experiment on SN12C, with DU-145, with HCC 2998, in the experiment with HOP-62 and in the experiment on SW-620 was > 100 µM (inactive) each time. Also, the GI50 in the experiment on U-251, in the experiment with COLO 205, in the experiment on OVCAR-3, with SF-268, with NCI-H522 and with RXF 393 was > 100 µM (inactive) throughout.
